Test results reported in ChEMBL document CHEMBL5230160, “Chemotherapeutics for Toxoplasma gondii: Molecular Biotargets, Binding Modes, and Structure-Activity Relationship Investigations” (J Med Chem, 2021).

Key:
Vero = assay: Cytotoxicity against African green monkey Vero cells assessed as cell growth inhibition by alamar blue assay; format: functional; details: Chlorocebus sabaeus, read-out: ED50 (the source's name)
[1] = Inhibition of Toxoplasma gondii recombinant ENR in presence of NADH by absorbance based analysis
Toxoplasma gondii [2] = assay: Antiparasitic activity against Toxoplasma gondii infected in HFF cells by fluorescence based analysis; format: functional, organism-based
[3] = Inhibition of Toxoplasma gondii FPPS incubated for 30 mins by scintillation counting analysis
Toxoplasma gondii [4] = assay: Antiparasitic activity against Toxoplasma gondii tachyzoites; format: functional, organism-based; details: Toxoplasma gondii; for EC50: read-out: ED50 (the source's name); for IC50: read-out: IC50
[5] = Selectivity ratio of IC50 for inhibition of Toxoplasma gondii FPPS to IC50 for antiparasitic activity against Toxoplasma gondii tachyzoites infected in hTERT cells; format: toxicity, cell-based; details: human
Toxoplasma gondii [6] = assay: Antiparasitic activity against Toxoplasma gondii tachyzoites infected in mouse assessed as survival at 10 mg/kg relative to control; format: functional
HeLa = assay: Cytotoxicity against human HeLa cells assessed as cell growth inhibition measured after 24 hrs by MTT assay; format: functional, cell-based; details: Homo sapiens, HeLa, 24 h
[7] = Selectivity index, ratio of IC50 for cytotoxicity against human HeLa cells to IC50 for antiparasitic activity against Toxoplasma gondii tachyzoites infected in human HeLa cells; format: toxicity, cell-based; details: read-out: Ratio IC50
Toxoplasma gondii [8] = assay: Antiparasitic activity against Toxoplasma gondii tachyzoites infected in human HeLa cells measured after 24 hrs by MTT assay; format: functional, organism-based; details: Toxoplasma gondii, HeLa, 24 h
Toxoplasma gondii [9] = assay: Antiparasitic activity against Toxoplasma gondii tachyzoites infected in hTERT cells by fluorescence plate reader assay; format: functional, organism-based; details: read-out: ED50 (the source's name)
[10] = Inhibition of Toxoplasma gondii recombinant PNP
Toxoplasma gondii [11] = assay: Antiparasitic activity against Toxoplasma gondii infected in HFF cells assessed as parasitic growth inhibition incubated for 24 hrs by MTS/PMS assay; format: functional, organism-based
[12] = Inhibition of Toxoplasma gondii DHFR

Compound: CC(=O)c1cc(Oc2ccccc2)ccc1OCCSC#N
- EC50 (Vero): 75.7 µM

Compound: Oc1cc(Cl)ccc1Oc1ccc(CNc2ccccc2)cc1Cl
- IC50 [1]: 0.031 µM
- IC50 (Toxoplasma gondii [2]): > 10 µM

Compound: CCCCCCCCCCCCCCNCC(P(=O)(O)O)P(=O)(O)O
- IC50 [3]: 0.292 µM

Compound: N#CSCCOc1ccc(Oc2ccncc2)cc1
- EC50 (Vero): > 200 µM
- EC50 (Toxoplasma gondii [4]): 7.86 µM

Compound: C[C@@H](Oc1cc(-c2cnn(C3CCNCC3)c2)cnc1N)c1c(Cl)ccc(F)c1Cl [CRIZOTINIB]
- IC50 (Toxoplasma gondii [4]): 4 µM

Compound: Cc1occc1C(=O)NN=C(S)Nc1ccccc1
- IC50 (Toxoplasma gondii [4]): 59 µg/mL

Compound: CCCCCCCCSCC(P(=O)(O)O)P(=O)(O)O
- Ratio IC50 [5]: > 1000
- IC50 [3]: 0.024 µM

Compound: Cc1cc(-n2c(=O)[nH]c(=O)n(C)c2=O)ccc1Oc1ccc(SC(F)(F)F)cc1 [TOLTRAZURIL]
- survival at 10 mg/kg (Toxoplasma gondii [6]): 100%
- IC50 (Toxoplasma gondii [4]): 0.94 µM

Compound: CC(=O)O[C@H]1C[C@@]2(C)[C@@H](C[C@@H](O)[C@H]3[C@@]4(C)CC[C@@H](O)[C@@H](C)[C@@H]4CC[C@@]32C)/C1=C(\CCC=C(C)C)C(=O)O [FUSIDIC ACID]
- survival at 10 mg/kg (Toxoplasma gondii [6]): 90%
- IC50 (Toxoplasma gondii [4]): 7 µM

Compound: COc1cc(-n2cc(/C=C3/C[C@@]4(C)[C@H](CC[C@]5(C)[C@@H]4CC=C4[C@@H]6[C@@H](C)[C@H](C)CC[C@]6(C(=O)O)CC[C@]45C)C(C)(C)C3=O)nn2)cc(OC)c1OC
- IC50 (HeLa): 354 µM
- selectivity ratio [7]: 1.17
- IC50 (Toxoplasma gondii [8]): 301 µM

Compound: C=C(C)CNCC(P(=O)(O)O)P(=O)(O)O
- Ratio IC50 [5]: 36

Compound: CC(C)=CCC/C(C)=C/CSCC(P(=O)(O)O)P(=O)(O)O
- EC50 (Toxoplasma gondii [9]): > 10 µM

Compound: N#CSCCOc1ccc(Oc2ccccn2)cc1
- EC50 (Vero): > 200 µM
- EC50 (Toxoplasma gondii [4]): > 10 µM

Compound: CO[C@H]1/C=C/O[C@@]2(C)Oc3c(C)c(O)c4c(O)c(c(/C=N/N5CCN(C6CCCC6)CC5)c(O)c4c3C2=O)NC(=O)/C(C)=C\C=C\[C@H](C)[C@H](O)[C@@H](C)[C@@H](O)[C@@H](C)[C@H](OC(C)=O)[C@@H]1C [RIFAPENTINE]
- survival at 10 mg/kg (Toxoplasma gondii [6]): 90%

Compound: N#CSCCOc1ccc(Oc2ccccc2)cc1
- EC50 (Vero): 82.6 µM
- EC50 (Toxoplasma gondii [4]): 4.8 µM

Compound: C[C@H]1[C@H](C)CC[C@]2(C(=O)O)CC[C@]3(C)C(=CC[C@@H]4[C@@]5(C)C/C(=C/c6cn(-c7ccccc7Cl)nn6)C(=O)C(C)(C)[C@H]5CC[C@]43C)[C@H]12
- IC50 (HeLa): 468 µM
- selectivity ratio [7]: 1.95
- IC50 (Toxoplasma gondii [8]): 240 µM

Compound: Cc1nnsc1C(=O)NNC(=S)Nc1ccccc1Br
- IC50 (Toxoplasma gondii [4]): 74.9 µg/mL

Compound: N#Cc1ccc(Oc2ccc(Cl)cc2O)c(Cl)c1
- IC50 [1]: 0.024 µM

Compound: Cc1cc(-n2c(=O)[nH]c(=O)n(C)c2=O)ccc1Oc1ccc(S(=O)(=O)C(F)(F)F)cc1 [PONAZURIL]
- survival at 10 mg/kg (Toxoplasma gondii [6]): 100%
- IC50 (Toxoplasma gondii [4]): 0.006 µM

Compound: CCCCCCCCCCNCC(P(=O)(O)O)P(=O)(O)O
- IC50 [3]: 0.068 µM

Compound: CCCCc1cn(Cc2ccc(Oc3ccc(Cl)cc3O)c(Cl)c2)nn1
- IC50 [1]: 0.043 µM
- IC50 (Toxoplasma gondii [2]): 0.25 µM

Compound: S=c1[nH]nc(-c2cccs2)[nH]1
- IC50 [10]: 194 µM

Compound: CCCCCCCCCCCNCC(P(=O)(O)O)P(=O)(O)O
- IC50 [3]: 0.868 µM

Compound: CCCCCCC[S+](C)CC(P(=O)(O)O)P(=O)(O)O (stereo not given)
- IC50 [3]: 0.013 µM

Compound: N#CSCCOc1ccc(Oc2cccnc2)cc1
- EC50 (Vero): 134 µM
- EC50 (Toxoplasma gondii [4]): 3.71 µM

Compound: CCc1nc(N)nc(N)c1-c1ccc(Cl)cc1 [PYRIMETHAMINE]
- IC50 (Toxoplasma gondii [11]): 3.62 µM
- IC50 (Toxoplasma gondii [4]): 0.453 µM

Compound: N#Cc1ccccc1CNc1ccc(Oc2ccc(Cl)cc2O)c(Cl)c1
- IC50 [1]: 0.016 µM
- IC50 (Toxoplasma gondii [2]): > 10 µM

Compound: CCCCCCCC[S+]([O-])CC(P(=O)(O)O)P(=O)(O)O (stereo not given)
- IC50 [3]: 0.016 µM

Compound: N#CSCCOc1ccc(Oc2ccc(C(F)(F)F)cc2)cc1
- EC50 (Vero): > 50 µM
- EC50 (Toxoplasma gondii [4]): 1.86 µM

Compound: N#CSCCOc1ccc(Oc2cccc(Oc3ccccc3Cl)c2)cc1
- EC50 (Vero): > 50 µM
- EC50 (Toxoplasma gondii [4]): 2.13 µM

Compound: N#CSCCOc1ccc(Oc2ccc3ccccc3c2)cc1
- EC50 (Vero): 105 µM
- EC50 (Toxoplasma gondii [4]): 2.25 µM

Compound: O=[N+]([O-])c1ccc(Oc2ccc(Cl)cc2O)c(Cl)c1
- IC50 [1]: < 0.02 µM
- IC50 (Toxoplasma gondii [2]): 4 µM

Compound: CCCCCCCCNCC(F)(P(=O)(O)O)P(=O)(O)O
- IC50 [3]: 0.035 µM

Compound: N#CSCCOc1ccc(Oc2cccc(C(F)(F)F)c2)cc1
- EC50 (Vero): > 50 µM
- EC50 (Toxoplasma gondii [4]): 1.66 µM

Compound: CCCCCCCCCNCC(F)(P(=O)(O)O)P(=O)(O)O
- IC50 [3]: 0.06 µM

Compound: Nc1ncnc2c1ncn2Cc1c(F)cccc1Cl [ARPRINOCID]
- survival at 10 mg/kg (Toxoplasma gondii [6]): 100%
- IC50 (Toxoplasma gondii [4]): 7 µM

Compound: COc1ccc(OC)c(Cc2cnc3nc(N)nc(N)c3c2C)c1 [PIRITREXIM]
- IC50 [12]: 0.017 µM

Compound: N#CC(c1ccc(Cl)cc1)c1c(Cl)cc(-n2ncc(=O)[nH]c2=O)cc1Cl (stereo not given) [DICLAZURIL]
- survival at 10 mg/kg (Toxoplasma gondii [6]): 100%
- IC50 (Toxoplasma gondii [4]): 0.006 µM

Compound: C/C(=N\Nc1nc(-c2ccc(Cl)c(Cl)c2)cs1)c1ccc(Nc2nc(N)nc(N)n2)cc1
- IC50 (Toxoplasma gondii [4]): 14.9 µg/mL

Compound: C[C@H]1[C@H](C)CC[C@]2(C(=O)OCCn3cnnc3-c3ccccc3)CC[C@]3(C)C(=CC[C@@H]4[C@@]5(C)CC[C@H](O)C(C)(C)[C@H]5CC[C@]43C)[C@H]12
- IC50 (HeLa): 102 µM
- selectivity ratio [7]: 1.15
- IC50 (Toxoplasma gondii [8]): 88 µM
